Reference: patent US20110263520A1, “COMPOSITION FOR USE IN CONTROLLING HARMFUL ORGANISMS THAT CONTAINS 16-KETO ASPERGILLIMIDE” (priority 2008, published 2011)
Where two headings read alike, the source gives them in different places.

Columns and labels:
[1] = tested on: Haemaphysalis longicornis; experiment: Tickcidal effect against Haemaphysalis longicornis, dry film in glass vial (Test Example 5); type: in vivo; details: for pest or weed control at 1.5 ppm: other agent 1.5 ppm alone (16-keto aspergillimide 0 ppm); for pest or weed control at 3 ppm: other agent 3 ppm alone (16-keto aspergillimide 0 ppm); for pest or weed control at 30 ppm: other agent 30 ppm alone (16-keto aspergillimide 0 ppm); for Death rate (%): Table 10; for Theoretical value (%) by Colby's formula: Table 12
Description: Acetone solutions (30 μl) adjusted to predetermined concentrations were placed in 4 mL-volume glass vials. The vials were placed on a shaker, and a dry film of the compound was prepared on the inner wall of the vials. The vials were dried for 24 hr or more. Larvae (10 or more heads) were released in the vials, and the vials were lidded. The vials were then left to stand in a humidistat chamber (25° C., humidity 85%, fully darkened conditions). […] The test was duplicated.
(§1) Colby's formula: Theoretical value (%)=100−(A×B)/100

Laodelphax striatellus [2] = experiment: Laodelphax striatellus soil drenching application test (Test Example 1); details: for Death rate (%): soil drenching, 3 days after release
Description: Test solutions adjusted to a predetermined concentration (10% aqueous acetone solution) were applied to rice seedling in a pot by soil drenching. The rice seedling was allowed to stand for 3 days. Second instar larvae were released and was then allowed to stand in a humidistat chamber (light period 16 hr−dark period 8 hr) (25° C.).
Death rate (%)={number of dead larvae/(number of survived larvae+number of dead larvae)}×100
wherein A: 100−(death rate when application was performed only with 16-keto aspergillimide); and

[3] = tested on: Haemaphysalis longicornis; experiment: Tickicidal effect against Haemaphysalis longicornis on body surface of mouse (Test Example 6); type: in vivo; details: other agent 6 μg/2 cm^2 alone (16-keto aspergillimide 0 μg/2 cm^2)
Description: Skin hair on the back of mouse (ICR, male, 5 week olds) was clipped in a diameter of about 2 cm, and a 15-mL polystyrene conical tube cut to have a height of about 1.5 cm was bonded to the body surface of the mouse with an instant adhesive. Test solutions (20 μl) adjusted with ethanol were dropped on the body surface of mice within the bonded tube. After thorough drying, larvae (10 or more heads) were released within the tube, and the tube was lidded. […] The test was hexaplicated.
as §1

Laodelphax striatellus [4] = experiment: Foliage application test for Laodelphax striatellus (Test Example 2); type: in vivo; details: other insecticide 0.313 ppm alone (16-keto aspergillimide 0 ppm); for Death rate (%): foliage application, 3 days after release
Source text: as §1

[5] = tested on: Nilaparvata lugens which is low-sensitive to imidacloprid; experiment: Foliage application test for Nilaparvata lugens, imidacloprid low-sensitive strain (Test Example 4); type: in vivo; details: low-sensitive strain, 6 days after release
Description: (§2) Test solutions adjusted to a predetermined concentration (50% aqueous acetone solution) applied to rice seedlings in a pot for foliage application. […] The test was duplicated.
(§3) For comparison, a test was carried out in the same manner as described above, except that a Nilaparvata lugens strain which is highly sensitive to imidacloprid was used.
(§4) Regarding the origin of the test insect pests, Nilaparvata lugens which is low-sensitive to imidacloprid was an insect which had been collected outdoors in Kumamoto Prefecture, 2007, and Nilaparvata lugens which is sensitive to imidacloprid was an insect which had been collected in Kagoshima Prefecture and was then subjected to indoor successive raising.

[6] = tested on: Nilaparvata lugens which is sensitive to imidacloprid; experiment: Foliage application test for Nilaparvata lugens, imidacloprid-sensitive strain (Test Example 4, comparison); type: in vivo; details: 6 days after release
Description: as §2, §3, §4

Laodelphax striatellus [7] = experiment: Root dipping application test, Laodelphax striatellus (Reference Test Example 1); type: in vivo; details: 0.5 μg/seedling, wheat seedlings, 3 days after release
Source text: A test solution adjusted to a predetermined concentration (10% aqueous acetone solution) was applied to the root of wheat seedlings in water culture. […] The test was duplicated.
As is apparent from Table 15, the systemic insecticidal activity of 16-keto aspergillimide was much higher than that of a control compound, Asperparaline A.
The 16-keto aspergillimide and Asperparaline A used in this test were obtained according to methods described in The Journal of Antibiotics, 1997, 50(10), 840-846. This is true of the following test examples.

[8] = other insecticide 0.005 mg/seedling alone (16-keto aspergillimide 0 mg/seedling)
[9] = Haemaphysalis longicornis, 48 h, read-out: Death rate (%), Table 9, 2 days after release
[10] = treatment concentration 1.25 ppm
[11] = other insecticide 0.002 mg/seedling alone (16-keto aspergillimide 0 mg/seedling)

Compound: CC(c1ccc(C(F)(F)F)nc1)S(C)(=O)=NC#N (centres unmarked) [Sulfoxaflor, sulfoxaflor]
- pest or weed control at 75 ppm ([1]; Haemaphysalis longicornis, 48 h, read-out: Death rate (%), Table 10, other agent 75 ppm alone (16-keto aspergillimide 0 ppm), 2 days after release): 48%
- pest or weed control at 150 ppm ([1]; Haemaphysalis longicornis, 48 h, read-out: Death rate (%), Table 10, other agent 150 ppm alone (16-keto aspergillimide 0 ppm), 2 days after release): 60%

Compound: CCN(Cc1ccc(Cl)nc1)/C(=C/[N+](=O)[O-])NC [Nitenpyram, nitenpyram]
- pest or weed control at 40 ppm ([1]; Haemaphysalis longicornis, 48 h, read-out: Death rate (%), Table 9, other agent 40 ppm alone (16-keto aspergillimide 0 ppm), 2 days after release): 12%

Compound: O=[N+]([O-])NC1=NCCN1Cc1ccc(Cl)nc1 [Imidacloprid, imidacloprid, reference compound]
- Theoretical value (%) calculated by the Colby's formula (Laodelphax striatellus [2]; [8]): 5%
- Death rate (%) (Laodelphax striatellus [2]; [8]): 5%
- Theoretical value (%) by Colby's formula [3]: 22%
- Death rate (%) ([3]; mouse body surface, 3 days after release): 22%
- pest or weed control at 1.5 ppm [1, 9]: 26%
- pest or weed control at 3 ppm [1, 9]: 33%
- Theoretical value (%) calculated by the Colby's formula (Laodelphax striatellus [4]): 5%
- Death rate (%) (Laodelphax striatellus [4]): 5%
- Death rate (%) [5, 10]: 15%
- Death rate (%) ([5]; treatment concentration 5 ppm): 55%
- Death rate (%) ([5]; treatment concentration 20 ppm): 85%
- Death rate (%) [6, 10]: 100%
- Death rate (%) ([6]; treatment concentration 5 ppm): 100%
- Death rate (%) ([6]; treatment concentration 20 ppm): 100%

Compound: C[C@H]1CCN2C[C@@]34C[C@]5(CC(=O)N(C)C5=O)C(C)(C)[C@@H]3C[C@]12C(=O)N4C [Asperparaline A, reference compound]
- Death rate (%) for each amount of test chemical compound (Laodelphax striatellus [7]): 0%

Compound: N#Cc1nn(-c2c(Cl)cc(C(F)(F)F)cc2Cl)c(N)c1[S+]([O-])C(F)(F)F (centres unmarked) [Fipronil, fipronil]
- Theoretical value (%) calculated by the Colby's formula (Laodelphax striatellus [2]): 5%
- Death rate (%) (Laodelphax striatellus [2]; [11]): 5%
- Theoretical value (%) calculated by the Colby's formula (Laodelphax striatellus [4]): 21%
- Death rate (%) (Laodelphax striatellus [4]): 21%

Compound: CN/C(=N\[N+](=O)[O-])NCc1cnc(Cl)s1 [Clothianidin, clothianidin]
- pest or weed control at 5 ppm ([1]; Haemaphysalis longicornis, 48 h, read-out: Death rate (%), Table 10, other agent 5 ppm alone (16-keto aspergillimide 0 ppm), 2 days after release): 35%
- pest or weed control at 10 ppm ([1]; Haemaphysalis longicornis, 48 h, read-out: Death rate (%), Table 10, other agent 10 ppm alone (16-keto aspergillimide 0 ppm), 2 days after release): 62%
- Theoretical value (%) calculated by the Colby's formula (Laodelphax striatellus [4]): 4%
- Death rate (%) (Laodelphax striatellus [4]): 4%

Compound: C/C(=N\C#N)N(C)Cc1ccc(Cl)nc1 [Acetamiprid, acetamiprid]
- pest or weed control at 1.5 ppm [1, 9]: 24%
- pest or weed control at 3 ppm [1, 9]: 55%

Compound: CN/C(=N/CC1CCOC1)N[N+](=O)[O-] (centres unmarked) [Dinotefuran, dinotefuran]
- Theoretical value (%) calculated by the Colby's formula (Laodelphax striatellus [2]): 4%
- Death rate (%) (Laodelphax striatellus [2]; [11]): 4%
- pest or weed control at 30 ppm [1, 9]: 12%
- pest or weed control at 50 ppm ([1]; Haemaphysalis longicornis, 48 h, read-out: Death rate (%), Table 9, other agent 50 ppm alone (16-keto aspergillimide 0 ppm), 2 days after release): 14%

Compound: ivermectin
- Death rate (%) ([1]; other agent 200 ppm alone (16-keto aspergillimide 0 ppm), 2 days after release): 0%
- Death rate (%) ([1]; other agent 400 ppm alone (16-keto aspergillimide 0 ppm), 2 days after release): 0%
- Theoretical value (%) by Colby's formula ([1]; other agent 200 ppm alone (16-keto aspergillimide 0 ppm)): 0%
- Theoretical value (%) by Colby's formula ([1]; other agent 400 ppm alone (16-keto aspergillimide 0 ppm)): 0%

Compound: CN1COCN(Cc2cnc(Cl)s2)/C1=N\[N+](=O)[O-] [Thiamethoxam, thiamethoxam]
- pest or weed control at 30 ppm ([1]; Haemaphysalis longicornis, 48 h, read-out: Death rate (%), Table 10, 2 days after release): 21%
- pest or weed control at 60 ppm ([1]; Haemaphysalis longicornis, 48 h, read-out: Death rate (%), Table 10, other agent 60 ppm alone (16-keto aspergillimide 0 ppm), 2 days after release): 26%
